Measured values reported in patent publication US4306069A, “Encainide N-oxide” (priority 1980, dated 1981).
≈ marks a conversion by molar mass, not a printed value. Entries after “also recorded” stand apart in the source; their conditions may differ. Counter-ions that a name gives are not always drawn.

Legend:
dog = test: Dog I.V.: anesthetized dog, effects on blood pressure, respiration and paw temperature; format: in vivo; details: for Toxicity, Dog I.V., effect at 1 mg/kg: first dose 1 mg/kg, blood pressure, respiration, paw temperature
Protocol: ^(2) Anesthesized dog treated first with a 1 mg/kg dose and then with
a 10 mg/kg dose; effects on blood pressure, respiration, and paw
temperature are observed.

[1] = system: ouabain induced ventricular tachycardia; test: Antiarrhythmic activity, ouabain induced ventricular tachycardia in the dog; format: in vivo; details: compared with quinidine and encainide
From the text: The present substance is an improved antiarrhythmic agent.
^(3) Anesthetized open chest dog, ouabain induced (Byrne, J.E., et al

[2] = system: ventricular arrhythmia produced by chloroform inhalation; test: Antiarrhythmic activity, ventricular arrhythmia produced in mice by chloroform inhalation; format: in vivo; details: 10 animals per dose
From the text: ^(4) Ventricular arrhythmia produced in mice by chloroform inhalation
10 animals per dose (Lawson, J. W., J. Pharmacol. Exp. Therap. 160, 22

[3] = Toxicity, oral doses in mice (ALD50, ATD50); format: in vivo; details: in vivo, mouse, oral, 5 mg/kg to 2000 mg/kg, 2 mice each dose; for LD50: read-out: ALD50 (approximate lethal dose for half the animals); for TD50: read-out: ATD50 (approximate lowest dose where signs of physiologic or neurologic deficit appear)
Protocol: (§1) ^(1) Various oral doses of from 5 mg/kg to 2000 mg/kg are given to 2
(§2) mice each; ALD50 is the approximate lethal dose for half the animals
(§3) ATD50 is the approximate lowest dose where signs of physiologic or
(§4) neurologic deficit appear.

mice = test: Toxicity, oral doses in mice (ALD50, ATD50); format: in vivo; details: compared with encainide and its hydrochloride salt
Protocol: as §1, §2, §3, §4

Water solubility = format: physicochemical

## COc1ccc(C(=O)Nc2ccccc2CCC2CCCC[N+]2(C)[O-])cc1 (racemic) [Encainide N-Oxide, 4-Methoxy-N-[2-[2-(1-methyl-2-piperidyl)ethyl]phenyl]-benzamide N-oxide]
dog
  Toxicity, Dog I.V., effect at 1 mg/kg: no effect
[1]
  Antiarrhythmic activity in ouabain induced ventricular tachycardia, in words: comparable to quinidine in activity, but somewhat less active than encainide
[2]; 31.3 mg/kg
  Antiarrhythmic Activity, Mouse, I.P., activity at 31.3 mg/kg: inactive
[3]
  LD50: 500 to 1000 mg/kg
  TD50: 62.5 to 125 mg/kg
mice
  Toxicity relative to encainide, in words: substantially reduced toxicity
Water solubility
  Water solubility, in words: increased water solubility; also recorded: highly water soluble
Water solubility; water
  solubility: 833 mg/mL (≈ 2260 mM)

## COc1ccc(C(=O)Nc2ccccc2CCC2CCCCN2C)cc1 (centres unmarked) [Encainide]
dog; 10 mg/kg after 1 mg/kg
  Toxicity, Dog I.V., effect at 10 mg/kg: lethal
dog
  Toxicity, Dog I.V., effect at 1 mg/kg: no effect
[2]; ip, mouse, I.P.
  ED50: 7.1 to 15 mg/kg
[3]
  LD50: 50 to 100 mg/kg
  TD50: 5 to 10 mg/kg
Water solubility
  Water solubility, in words: rather low water solubility
Water solubility; water
  Water solubility: 46.3 mg/mL

## COc1ccc(C(=O)Nc2ccccc2CCC2CCCCN2C)cc1 (centres unmarked) [hydrochloride salt]
Water solubility
  Water solubility, in words: higher water solubility relative to the base
Water solubility; water
  Water solubility: 205 mg/mL
